This is an account of results in ChEMBL document CHEMBL1157938, “Cytotoxicity and inhibition of DNA topoisomerase I of polyhydroxylated triterpenoids and triterpenoid glycosides” (Bioorg Med Chem Lett, 2010).

The source made the active and inactive calls. The rule behind the calls is not given here. Bounds are passed on as bounds.

The target in data set [1] is T1, DNA topoisomerase 1 (Homo sapiens) (UniProt P11387).
T1 sequence (whole entry): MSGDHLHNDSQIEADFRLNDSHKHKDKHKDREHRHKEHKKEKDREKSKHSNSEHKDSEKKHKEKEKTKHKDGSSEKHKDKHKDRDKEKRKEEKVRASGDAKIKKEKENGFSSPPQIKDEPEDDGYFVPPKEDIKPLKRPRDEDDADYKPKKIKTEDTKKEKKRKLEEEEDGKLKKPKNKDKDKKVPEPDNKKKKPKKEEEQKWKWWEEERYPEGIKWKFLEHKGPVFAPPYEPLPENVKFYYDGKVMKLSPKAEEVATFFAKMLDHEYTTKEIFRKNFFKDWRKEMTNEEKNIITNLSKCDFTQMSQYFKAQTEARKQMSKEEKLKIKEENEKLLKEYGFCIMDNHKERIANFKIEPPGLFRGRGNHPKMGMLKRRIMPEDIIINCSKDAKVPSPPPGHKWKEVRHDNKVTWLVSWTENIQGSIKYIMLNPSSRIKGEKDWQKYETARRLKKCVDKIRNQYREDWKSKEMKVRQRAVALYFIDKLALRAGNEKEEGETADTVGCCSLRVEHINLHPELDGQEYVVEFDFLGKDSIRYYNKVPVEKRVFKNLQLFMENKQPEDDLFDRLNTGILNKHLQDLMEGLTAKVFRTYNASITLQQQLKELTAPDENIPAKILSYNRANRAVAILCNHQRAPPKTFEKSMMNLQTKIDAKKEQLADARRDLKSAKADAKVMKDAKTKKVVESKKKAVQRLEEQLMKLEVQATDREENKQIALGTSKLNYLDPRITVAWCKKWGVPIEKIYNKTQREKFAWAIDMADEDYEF
The data set can be described thus: Inhibition of human DNA topoisomerase 1 assessed as stabilize DNA-enzyme covalent complex.

Data set [2] deals with T1, DNA topoisomerase 1 (Homo sapiens). As to the kind of experiment: Inhibition of human DNA topoisomerase 1-mediated relaxation of supercoiled DNA at 312 uM.
Data set [3] deals with T2, DNA topoisomerase 1 (Homo sapiens, UniProt P11387).
T2 sequence (P11387 whole entry): T1 sequence (whole entry)
As to the kind of experiment: Inhibition of human DNA topoisomerase 1 at free enzyme state.

The subject of the next data set is A549. As to the kind of experiment: Cytotoxicity against human A549 cells after 48 hrs by WST8 assay. It is filed as functional. The following applies: A549, 48 h. A general note: Tetrazolium dyes change colour on reduction, which living cells bring about.
The subject of the next data set is HL-60. As to the kind of experiment: Cytotoxicity against human HL60 cells after 48 hrs by WST8 assay. It is filed as functional. The note with it: HL-60, 48 h.
The target in data set [4] is T1, DNA topoisomerase 1 (Homo sapiens). As to the kind of experiment: Inhibition of human DNA topoisomerase 1 assessed as prevention of DNA-enzyme complex formation.
Data set [5] can be described thus: Cytotoxicity against human MRC5 cells after 48 hrs by WST8 assay. It is filed as cell-based.
The test system of the next data set is PC-3. As to the kind of experiment: Cytotoxicity against human PC3 cells after 48 hrs by WST8 assay. The data set is classed as functional. The note with it: PC-3, 48 h.
The next data set has as its system PANC-1. The data set can be described thus: Cytotoxicity against human PANC1 cells after 48 hrs by WST8 assay. It is filed as functional. The following applies: PANC-1, 48 h.
Data set [6] has as its target T1, DNA topoisomerase 1 (Homo sapiens). As to the kind of experiment: Inhibition of human DNA topoisomerase 1-mediated relaxation of supercoiled DNA at 450 uM.
Data set [7] shares this target. The data set can be described thus: Inhibition of human DNA topoisomerase 1 assessed as intercalate into DNA at 312 uM.
Data set [8] has as its target T2, DNA topoisomerase 1. As to the kind of experiment: Inhibition of human DNA topoisomerase 1-mediated relaxation of supercoiled DNA by gel electrophoresis.
For data set [9], the target named is DNA topoisomerase 2-alpha (Homo sapiens, UniProt P11388). As to the kind of experiment: Inhibition of human DNA topoisomerase 2-mediated relaxation of supercoiled DNA by gel electrophoresis.
Data set [10] addresses T1, DNA topoisomerase 1 (Homo sapiens). As to the kind of experiment: Inhibition of human DNA topoisomerase 1-mediated relaxation of supercoiled DNA at 63 uM.
Data set [11] has the same target. The data set can be described thus: Inhibition of human DNA topoisomerase 1-mediated relaxation of supercoiled DNA at 63 to 125 uM.
Data set [12] can be described thus: Inhibition of Leishmania donovani DNA topoisomerase 1 treated simultaneously with DNA.
For data set [13], the target named is T3, DNA topoisomerase 1 (Rattus norvegicus, UniProt Q9WUL0).
T3 sequence (Q9WUL0 whole entry): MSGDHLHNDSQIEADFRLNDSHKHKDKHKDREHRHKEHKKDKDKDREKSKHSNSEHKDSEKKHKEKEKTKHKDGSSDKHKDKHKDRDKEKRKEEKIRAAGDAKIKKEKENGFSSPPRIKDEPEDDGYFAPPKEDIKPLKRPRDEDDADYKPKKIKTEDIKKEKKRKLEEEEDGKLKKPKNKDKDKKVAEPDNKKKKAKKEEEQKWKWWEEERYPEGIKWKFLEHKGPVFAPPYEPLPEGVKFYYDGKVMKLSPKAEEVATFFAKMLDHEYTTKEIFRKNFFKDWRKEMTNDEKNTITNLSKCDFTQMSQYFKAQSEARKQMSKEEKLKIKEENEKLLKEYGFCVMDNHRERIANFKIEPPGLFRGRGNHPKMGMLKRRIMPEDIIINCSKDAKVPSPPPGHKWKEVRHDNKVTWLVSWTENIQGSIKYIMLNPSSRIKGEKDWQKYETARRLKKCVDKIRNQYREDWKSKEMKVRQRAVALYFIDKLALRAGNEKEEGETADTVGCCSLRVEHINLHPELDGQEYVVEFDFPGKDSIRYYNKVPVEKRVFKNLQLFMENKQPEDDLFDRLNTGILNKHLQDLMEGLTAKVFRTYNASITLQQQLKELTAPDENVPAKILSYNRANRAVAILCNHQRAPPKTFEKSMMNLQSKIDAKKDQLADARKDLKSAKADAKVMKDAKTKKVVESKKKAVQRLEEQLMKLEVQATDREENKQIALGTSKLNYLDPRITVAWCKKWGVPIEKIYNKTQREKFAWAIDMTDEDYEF
The data set can be described thus: Inhibition of rat liver DNA topoisomerase 1 preincubated before addition of DNA.

Data set [14] in a line: Inhibition of Leishmania donovani DNA topoisomerase 1 preincubated before addition of DNA.
In data set [15] the target is T3, DNA topoisomerase 1. The data set can be described thus: Inhibition of rat liver DNA topoisomerase 1 treated simultaneously with DNA.

One may read the IC50 as the midpoint of a concentration-inhibition curve. Low readings indicate inhibition by little substance, high ones a need for much substance. Broadly, the GI50 is the concentration at which growth is held to half of that of the control. Lower therefore signals greater sensitivity of the cells.

DNA topoisomerase 2-alpha, sequence (P11388 whole entry): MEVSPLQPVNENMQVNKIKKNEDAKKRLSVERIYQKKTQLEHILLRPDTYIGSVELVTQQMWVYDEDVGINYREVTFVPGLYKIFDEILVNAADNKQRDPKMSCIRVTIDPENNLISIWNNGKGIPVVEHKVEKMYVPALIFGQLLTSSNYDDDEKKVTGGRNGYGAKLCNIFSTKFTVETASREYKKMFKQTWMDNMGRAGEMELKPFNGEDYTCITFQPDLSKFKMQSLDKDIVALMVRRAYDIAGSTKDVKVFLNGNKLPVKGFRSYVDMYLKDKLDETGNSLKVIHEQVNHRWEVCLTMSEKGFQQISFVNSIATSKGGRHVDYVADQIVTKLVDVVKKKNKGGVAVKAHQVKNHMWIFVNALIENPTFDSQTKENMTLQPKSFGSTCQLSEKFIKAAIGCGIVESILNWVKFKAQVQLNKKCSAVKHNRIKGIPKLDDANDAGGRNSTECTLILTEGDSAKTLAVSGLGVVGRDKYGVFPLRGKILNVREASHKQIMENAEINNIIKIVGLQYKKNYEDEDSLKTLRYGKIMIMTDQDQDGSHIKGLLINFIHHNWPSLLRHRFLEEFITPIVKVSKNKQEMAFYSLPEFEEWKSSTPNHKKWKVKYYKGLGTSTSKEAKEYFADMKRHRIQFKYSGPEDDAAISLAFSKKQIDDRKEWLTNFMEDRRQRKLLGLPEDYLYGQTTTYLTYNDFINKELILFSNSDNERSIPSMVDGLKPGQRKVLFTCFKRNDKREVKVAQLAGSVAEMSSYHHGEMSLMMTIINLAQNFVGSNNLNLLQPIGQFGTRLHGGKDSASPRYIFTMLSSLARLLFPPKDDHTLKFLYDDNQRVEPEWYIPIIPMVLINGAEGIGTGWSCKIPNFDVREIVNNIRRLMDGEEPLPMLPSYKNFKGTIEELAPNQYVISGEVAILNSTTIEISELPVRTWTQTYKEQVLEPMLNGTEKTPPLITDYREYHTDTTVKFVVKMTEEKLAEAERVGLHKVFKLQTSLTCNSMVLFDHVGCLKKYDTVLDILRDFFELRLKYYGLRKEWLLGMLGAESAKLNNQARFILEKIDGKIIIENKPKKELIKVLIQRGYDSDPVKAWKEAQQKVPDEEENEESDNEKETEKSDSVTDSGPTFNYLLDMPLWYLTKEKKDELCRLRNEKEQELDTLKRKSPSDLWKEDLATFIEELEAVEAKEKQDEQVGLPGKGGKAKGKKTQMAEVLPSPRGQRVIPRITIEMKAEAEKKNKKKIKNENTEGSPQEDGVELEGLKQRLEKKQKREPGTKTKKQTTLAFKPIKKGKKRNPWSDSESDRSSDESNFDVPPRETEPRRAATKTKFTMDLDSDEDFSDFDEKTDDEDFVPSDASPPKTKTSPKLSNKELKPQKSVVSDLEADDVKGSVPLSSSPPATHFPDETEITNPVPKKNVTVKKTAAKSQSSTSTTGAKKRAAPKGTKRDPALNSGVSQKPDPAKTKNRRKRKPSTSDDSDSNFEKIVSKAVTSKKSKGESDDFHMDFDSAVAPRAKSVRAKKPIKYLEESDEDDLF

In the case of `C/C=C(/C)C(=O)O[C@H]1[C@H](O)[C@]2(CO)[C@H](O)C[C@]3(C)C(=CC[C@@H]4[C@@]5(C)CC[C@H](O[C@@H]6O[C@H](C(=O)O)[C@@H](O)[C@H](O[C@@H]7O[C@@H](CO)[C@H](O)[C@H]7O)[C@H]6O)[C@](C)(CO)[C@@H]5CC[C@]43C)[C@@H]2CC1(C)C` [AESCULIOSIDE IID], the inhibition result in [1] and in data set [2] was “inactive” each time. In addition, the IC50 against DNA topoisomerase 1 [3] is 23.8 µM; at DNA topoisomerase 1 [8], 23.8 µM; in data set [9] it was above 250 µM. Besides, the concentration for 50% growth inhibition (GI50) is 12.9 µM with A549, 7.5 µM with HL-60, 5.51 µM with PC-3 and 10.3 µM with PANC-1. Further, the inhibition entry in data set [4], in data set [6] and in [10] was “Active” in each case. Moreover, halving of growth in data set [5] (GI50 at 48 h) required 15.4 µM. Besides, the outcome in data set [7] was Active.
For `C/C=C(/C)C(=O)O[C@H]1[C@H](OC(=O)/C(C)=C\C)[C@]2(CO)[C@H](O)C[C@]3(C)C(=CC[C@@H]4[C@@]5(C)CC[C@H](O[C@@H]6O[C@H](C(=O)O)[C@@H](O)[C@H](O[C@@H]7O[C@@H](CO)[C@H](O)[C@H]7O)[C@H]6O[C@@H]6O[C@H](CO)[C@H](O)[C@H](O)[C@H]6O)C(C)(C)[C@@H]5CC[C@]43C)[C@@H]2CC1(C)C`, the inhibition result in data set [1] was “inactive”. Further, the half-inhibitory concentration (IC50) against DNA topoisomerase 1 [3] is 23.8 µM; against DNA topoisomerase 1 [8], 27.1 µM; in [9] it was above 250 µM. The GI50 in the data set with A549 came to 6.03 µM; with HL-60 it was 1.97 µM; in the data set with PC-3 it was 3.26 µM; in the data set with PANC-1 it was 11.9 µM. For the same compound, the inhibition entry in data set [4], in data set [11] and in [10] was “Active” each time. Moreover, in data set [5], halving of growth (GI50 at 48 h) required 7.43 µM.
On to `O=c1cc(-c2ccc(O)c(O)c2)oc2cc(O)cc(O)c12` [LUTEOLIN], for which the half-maximal inhibitory concentration (IC50) in data set [12] came to 14 µM; on DNA topoisomerase 1 [13], 0.66 µM; in data set [14] it was 2.5 µM; against DNA topoisomerase 1 [15], 5 µM.
